According to patent US9145389B2, “Benzimidazole compound crystal” (Takeda Pharmaceutical Company Limited, priority 1999, dated 2015):

Experiments:
[1] = Stability during storage at 60° C. (stopper removed), content by HPLC; assay type: physicochemical; settings: for Description: appearance after storage at 60° C. (exposed)
Experimental: The crystals of R(+)-lansoprazole as obtained in Example 2 (about 5 mg) and amorphous R(+)-lansoprazole as obtained in Reference Example 1 (about 5 mg) were each taken in a colorless glass bottle, and their stability during storage at 60° C. (stopper removed) was examined. A 25 ml solution (concentration: about 0.2 mg/ml) of the sample after completion of storage in the mobile phase, along with a standard solution prepared using the initial lot, was analyzed under the HPLC conditions shown below, and the R(+)-lansoprazole content (residual percentage) was calculated from the peak area obtained.

[2] = tested on: Gastric Mucosal Injury Due to Stress of Water Immersion Restraint in Rat; assay: Suppressive action on gastric mucosal injury due to stress of water immersion restraint in rat; assay type: in vivo; settings: male SD rats, 3 mg/kg orally 30 minutes before stressing
Experimental: Suppressive Action on Gastric Mucosal Injury Due to Stress of Water Immersion Restraint in Rat
Male SD rats (7 weeks of age, weighing 230 to 250 g) were fasted for 24 hours, after which they were stressed by being housed in restraint cages and immersed to below the xiphoid process in a standing position in a 23° C. constant-temperature water chamber. After 5 hours, the rats were removed from the cages and sacrificed using gaseous carbon dioxide, and their stomachs excised. After the lower portion of the esophagus was clipped, a 1% formalin solution (10 ml) was injected into the stomach via the duodenum, which was then occluded, and the stomach was immersed in the same solution. After 10 minutes, an incision was made along the greater curvature, and the length (mm) of each mucosal injury was measured under a stereomicroscope. The overall sum of the injury lengths in each stomach was taken as the gastric mucosal injury index.
The crystals of (R)-2-[[[3-methyl-4-(2,2,2-trifluoroethoxy)-2-pyridinyl]methyl]sulfinyl]-1H-benzimidazole (R(+)-lansoprazole) as obtained in Example 2 were suspended in 0.5% methyl cellulose (pH 9.5) containing 0.05 M NaHCO3 and orally administered at 30 minutes before stressing (dosing volume 2 ml/kg). Each treatment group comprised 9 animals. The control group (solvent administration group) and the drug administration group were compared by Steel's test.

Compound: Cc1c(OCC(F)(F)F)ccnc1C[S@@+]([O-])c1nc2ccccc2[nH]1 [Reference Example 1, (R)-2-[[[3-methyl-4-(2,2,2-trifluoroethoxy)-2-pyridinyl]methyl]sulfinyl]-1H-benzimidazole, reference compound]
- Description ([1]; 1 week, listed as Amorphous): Brown
- Description ([1]; 2 weeks, listed as Amorphous): Blackish brown
- Content (Residual percentage) ([1]; storage at 60° C. (exposed), 1 week): 70.8%
- Content (Residual percentage) ([1]; storage at 60° C. (exposed), 1 week, listed as Amorphous): 70.8%
- Content (Residual percentage) ([1]; storage at 60° C. (exposed), 2 weeks): 57.5%
- Content (Residual percentage) ([1]; storage at 60° C. (exposed), 2 weeks, listed as Amorphous): 57.5%

Compound: Cc1c(OCC(F)(F)F)ccnc1C[S@@+]([O-])c1nc2ccccc2[nH]1 [Example 2, (R)-2-[[[3-methyl-4-(2,2,2-trifluoroethoxy)-2-pyridinyl]methyl]sulfinyl]-1H-benzimidazole]
- Description ([1]; 1 week, listed as Crystal): Light-brown
- Description ([1]; 2 weeks, listed as Crystal): Brown
- Description ([1]; 4 weeks): Brown
- Content (Residual percentage) ([1]; storage at 60° C. (exposed), 1 week, listed as Crystal): 97.0%
- Content (Residual percentage) ([1]; storage at 60° C. (exposed), 2 weeks, listed as Crystal): 93.8%
- Content (Residual percentage) ([1]; storage at 60° C. (exposed), 4 weeks): 91.7%
- Content retained ([1]; storage at 60° C. (exposed), for up to 4 weeks): exceeding 90%
- Gastric mucosal injury index ([2]; 5 hours water immersion restraint, mean ± standard error, 9 animals): 0.2 ± 0.2 mm
- Suppression rate ([2]; versus control group): 98.0%
